# Measurements taken from ChEMBL document CHEMBL1201862, “PubChem BioAssay data set” (2004).
#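 Following 48 hours of exposure in 96-well plates, responses at five concentrations were used to interpolate endpoints linearly. GI50 marks 50% less growth.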 The source made the active and inactive calls. Cut-off read from the data, not from the text of the source: active = GI50 up to about 1.1 µM and inactive = higher.
# Tests used:
# Assay in all cases: NCI anticancer screen, dose series, 48 h
# UO-31 = system: UO-31
# HCC 2998 = system: HCC 2998
# K562 = system: K562
# KM12 = system: KM12
# HL-60 = system: HL-60
# SF-539 = system: SF-539
# Malme-3M = system: Malme-3M
# SNB-75 = system: SNB-75
# CCRF-CEM = system: CCRF-CEM
# HCT-116 = system: HCT-116
# SW-620 = system: SW-620
# U-251 = system: U-251
# ACHN = system: ACHN
# LOX IMVI = system: LOX IMVI
# COLO 205 = system: COLO 205
# SK-OV-3 = system: SK-OV-3
# IGROV-1 = system: IGROV-1
SMILES,GI50 (UO-31),GI50 (HCC 2998),GI50 (K562),GI50 (KM12),GI50 (HL-60),GI50 (SF-539),GI50 (Malme-3M),GI50 (SNB-75),GI50 (CCRF-CEM),GI50 (HCT-116),GI50 (SW-620),GI50 (U-251),GI50 (ACHN),GI50 (LOX IMVI),GI50 (COLO 205),GI50 (SK-OV-3),GI50 (IGROV-1)
c1ccc(-c2nnc3nn4c(-c5ccccc5)cnnc4c3c2-c2ccccc2)cc1,23.2 µM (inactive),48.2 µM (inactive),75 µM (inactive),> 100 µM (inactive),3.12 µM (inactive),26.3 µM (inactive),42.5 µM (inactive),34.4 µM (inactive),> 100 µM (inactive),63.4 µM (inactive),> 100 µM (inactive),32.6 µM (inactive),55.6 µM (inactive),> 100 µM (inactive),,,
COC(=O)c1ccccc1/N=C/c1ccc(N(CCC#N)S(=O)(=O)c2ccccc2)cc1,> 100 µM (inactive),,> 100 µM (inactive),> 100 µM (inactive),> 100 µM (inactive),> 100 µM (inactive),> 100 µM (inactive),> 100 µM (inactive),> 100 µM (inactive),> 100 µM (inactive),> 100 µM (inactive),> 100 µM (inactive),> 100 µM (inactive),> 100 µM (inactive),> 100 µM (inactive),> 100 µM (inactive),> 100 µM (inactive)
C[C@H](OCc1ccccc1)C(=O)N1CCS(=O)(=O)N2CCC[C@H]2C1=O,> 100 µM (inactive),> 100 µM (inactive),> 100 µM (inactive),> 100 µM (inactive),> 100 µM (inactive),> 100 µM (inactive),> 100 µM (inactive),> 100 µM (inactive),> 100 µM (inactive),> 100 µM (inactive),> 100 µM (inactive),> 100 µM (inactive),> 100 µM (inactive),> 100 µM (inactive),> 100 µM (inactive),> 100 µM (inactive),> 100 µM (inactive)
O=[N+]([O-])/C=C/c1ccc(Cl)cc1Cl,16.2 µM (inactive),15.5 µM (inactive),3.33 µM (inactive),14.7 µM (inactive),5.26 µM (inactive),17.1 µM (inactive),17.8 µM (inactive),20.4 µM (inactive),3.62 µM (inactive),3.44 µM (inactive),12.1 µM (inactive),5.66 µM (inactive),16.8 µM (inactive),,21.2 µM (inactive),,14.8 µM (inactive)
CCN(CC)c1ccc2c(c1)N=C1N=CC=CN1C2(c1ccc(N(C)C)cc1)c1ccc(N(C)C)cc1,7.48 µM (inactive),3.24 µM (inactive),2.3 µM (inactive),4.42 µM (inactive),1.43 µM (inactive),14.6 µM (inactive),12.7 µM (inactive),11.6 µM (inactive),8.55 µM (inactive),3.85 µM (inactive),,4.32 µM (inactive),4.5 µM (inactive),5.25 µM (inactive),2.36 µM (inactive),2.61 µM (inactive),10.4 µM (inactive)
O=C1[C@@H]2C3SC(c4ccccc43)[C@@H]2C(=O)N1c1ccccc1,> 100 µM (inactive),> 100 µM (inactive),> 100 µM (inactive),> 100 µM (inactive),> 100 µM (inactive),> 75 µM (inactive),> 100 µM (inactive),28.6 µM (inactive),> 100 µM (inactive),> 100 µM (inactive),> 100 µM (inactive),> 66.4 µM (inactive),> 100 µM (inactive),> 100 µM (inactive),> 100 µM (inactive),> 83.4 µM (inactive),> 100 µM (inactive)
CN1C(=O)C(Cl)(C(Cl)(Cl)S(=O)(=O)O)C(=O)c2ccccc21.c1ccncc1 (centres undefined),91.2 µM (inactive),> 100 µM (inactive),> 100 µM (inactive),> 100 µM (inactive),> 100 µM (inactive),> 100 µM (inactive),33.2 µM (inactive),54.2 µM (inactive),> 100 µM (inactive),> 100 µM (inactive),> 100 µM (inactive),> 100 µM (inactive),76.4 µM (inactive),> 100 µM (inactive),> 100 µM (inactive),> 100 µM (inactive),> 100 µM (inactive)
COC(=O)C1=C(c2ccc(OC)c(OC)c2)OC(c2ccc(OC)c(OC)c2)C1 (centres undefined),28.8 µM (inactive),66.1 µM (inactive),32.1 µM (inactive),32.7 µM (inactive),9.82 µM (inactive),33.4 µM (inactive),30 µM (inactive),41.4 µM (inactive),31.4 µM (inactive),27.3 µM (inactive),35.3 µM (inactive),36.1 µM (inactive),25.4 µM (inactive),19.5 µM (inactive),17.1 µM (inactive),32.6 µM (inactive),25.1 µM (inactive)
COC[C@@H](/N=C/N1CCc2cc(OC)c(OC)cc2C1)C(C)(C)C,> 100 µM (inactive),,> 100 µM (inactive),> 100 µM (inactive),> 100 µM (inactive),> 100 µM (inactive),> 100 µM (inactive),> 100 µM (inactive),> 100 µM (inactive),> 100 µM (inactive),> 100 µM (inactive),> 100 µM (inactive),> 100 µM (inactive),,> 100 µM (inactive),> 100 µM (inactive),> 100 µM (inactive)
COc1ccc(OC)c(CCc2ccccc2CC(=O)O)c1,> 100 µM (inactive),> 100 µM (inactive),> 100 µM (inactive),> 100 µM (inactive),> 100 µM (inactive),> 100 µM (inactive),> 100 µM (inactive),35.5 µM (inactive),> 100 µM (inactive),> 100 µM (inactive),> 100 µM (inactive),> 100 µM (inactive),> 100 µM (inactive),> 100 µM (inactive),> 100 µM (inactive),> 100 µM (inactive),> 100 µM (inactive)
O=C(N/C(=C\c1cccc([N+](=O)[O-])c1)c1nc2cc([N+](=O)[O-])ccc2[nH]1)c1ccccc1,10.9 µM (inactive),33.5 µM (inactive),25.1 µM (inactive),29.6 µM (inactive),,29.4 µM (inactive),48.2 µM (inactive),,19.8 µM (inactive),,35.1 µM (inactive),40.7 µM (inactive),28.4 µM (inactive),,35.6 µM (inactive),71.3 µM (inactive),21.4 µM (inactive)
CC(C)C(Nc1c2ccccc2nc2ccccc12)C(=O)O (centres undefined),29.1 µM (inactive),> 100 µM (inactive),> 100 µM (inactive),> 100 µM (inactive),52.6 µM (inactive),> 100 µM (inactive),> 100 µM (inactive),> 100 µM (inactive),> 100 µM (inactive),43.3 µM (inactive),> 100 µM (inactive),> 100 µM (inactive),49.2 µM (inactive),55.1 µM (inactive),70.1 µM (inactive),> 100 µM (inactive),> 100 µM (inactive)
CNS(=O)(=O)NNS(=O)(=O)c1ccc2ccccc2c1,> 100 µM (inactive),> 100 µM (inactive),> 100 µM (inactive),> 100 µM (inactive),> 100 µM (inactive),> 100 µM (inactive),> 100 µM (inactive),> 100 µM (inactive),> 100 µM (inactive),> 100 µM (inactive),> 100 µM (inactive),> 100 µM (inactive),> 100 µM (inactive),> 100 µM (inactive),> 100 µM (inactive),> 100 µM (inactive),> 100 µM (inactive)
COC(=O)/C=C1/CCC2[C@@H](C(=O)CC3[C@]2(C)CCC[C@@]3(C)C(=O)OC)C1C (some centres undefined),15.1 µM (inactive),20.1 µM (inactive),3.18 µM (inactive),12.6 µM (inactive),2.61 µM (inactive),14.9 µM (inactive),16.1 µM (inactive),8.99 µM (inactive),3.56 µM (inactive),5.79 µM (inactive),5.86 µM (inactive),15.4 µM (inactive),10.1 µM (inactive),,5.57 µM (inactive),30.9 µM (inactive),20.2 µM (inactive)
CCOc1ccc(/C=C\c2cc(OC)c(OC)c(OC)c2)cc1,0.00041 µM (active),0.0685 µM (active),< 0.0001 µM (active),0.00703 µM (active),< 0.0001 µM (active),0.000102 µM (active),0.00139 µM (active),< 0.0001 µM (active),0.01 µM (active),0.00033 µM (active),< 0.0001 µM (active),0.000172 µM (active),0.01 µM (active),0.000291 µM (active),0.0127 µM (active),,0.2 µM (active)
O=c1cc(-c2ccccc2)oc2cc(O)cc(O)c12 [CHRYSIN],20.4 µM (inactive),19.8 µM (inactive),22.8 µM (inactive),15.5 µM (inactive),16.8 µM (inactive),15.1 µM (inactive),24.3 µM (inactive),10.3 µM (inactive),19.4 µM (inactive),15.2 µM (inactive),,21.7 µM (inactive),15.2 µM (inactive),14.7 µM (inactive),18.5 µM (inactive),27.9 µM (inactive),> 10 µM (inactive)
CC[C@H](C)C(=O)O[C@H]1C[C@@H](C)C=C2C=C[C@H](C)[C@H](CC[C@@H]3C[C@@H](O)CC(=O)O3)[C@H]21 [LOVASTATIN],6.27 µM (inactive),15.1 µM (inactive),19.5 µM (inactive),> 30 µM (inactive),8.83 µM (inactive),,> 30 µM (inactive),,18.4 µM (inactive),,7.36 µM (inactive),,1.76 µM (inactive),1.58 µM (inactive),5.73 µM (inactive),11.8 µM (inactive),5.96 µM (inactive)
